Values after ≈ are worked out from the molar mass of the structure shown.
Assays:
[1] = system: C. difficile strains (N = 27); assay: MIC by agar dilution against C. difficile clinical isolates; format: cell-based; conditions: Clostridioides difficile, 27 isolates
Method: The activity of omadacycline was tested in vitro against 27 clinical isolates of C. difficile. […] The experiments were carried out using broth and agar microdilution methods according to Clinical and Laboratory Standards Institute (CLSI) guidelines. […] Each test was run in duplicate.

[2] = system: C. difficile strain ATCC 43596; assay: Hamster model of C. difficile-associated diarrhea, survival; format: in vivo
[3] = system: gut microflora populations; assay: In vitro human gut model, gut microflora populations (Example 3); format: cell-based
From the text: An in vitro gut model was used to study the effects of omadacycline instillation on both normal microflora populations and C. difficile. This gut model has been validated against gut contents from sudden death victims and provides a very close simulation of bacterial activities and composition in different areas of the hindgut (Macfarlane et al., Microb. Ecol. 35, 180-7, 1998). The model consists of three vessels aligned in series, and top-fed with a complex growth medium. All three vessels are continuously stirred, anaerobically maintained at 37° C. and regulated to reflect in vivo differences, including pH, from proximal to distal colon. The three anaerobic fermentation vessels are maintained at increasing alkalinity (from pH 5.5±0.2 for vessel 1; pH 6.2±0.2 for vessel 2; and pH 6.8±0.2 for vessel 3). The increasing alkalinity in combination with the nutrient limited conditions are designed to simulate the human gut from the proximal to the distal colon. Inoculation with pooled human feces (from healthy elderly volunteers) is followed by a period of equilibration, during which bacterial populations respond to their environmental conditions and reach a steady state. At this stage, dietary ingredients, prebiotics, pathogens and/or antibiotics may be added, and the bacterial populations monitored. Specific components of the gut flora and relevant pathogens may be closely monitored and their behavior analyzed.
(§1) The gut model was inoculated with pooled fecal slurry (5 volunteers ≥60 years of age with no history of antibiotic therapy in the previous 3 months) and left for 2 weeks to allow the bacterial populations to achieve steady state. A single inoculum (˜10^7 cfu/mL) of C. difficile spores (PCR ribotype 027 strain 210) was added into vessel 1 of the gut model on day 14. One week later, on day 21, a second aliquot of C. difficile spores was added, and antibiotic instillation commenced. Omadacycline instillation (430 mg/L, once daily, for 7 days) commenced on day 21.
Gut microbiota bacterial populations and C. difficile total viable counts and spore counts were enumerated daily by culture on selective and non-selective agars. C. difficile populations were monitored in all three vessels, and all other bacterial groups (total obligate anaerobes, total facultative anaerobes, lactose fermenting enterobacteriaceae, enterococci, total clostridia, lactobacilli, bifidobacteria, B. fragilis group) were monitored in vessels 2 and 3 only. Vessel 3 is of most physiological relevance in terms of propensity to induce CDI. C. difficile total viable counts and spores counts were monitored using viable counting and a differential alcohol shock viable count on selective agars.

[4] = system: gut microflora populations; assay: In vitro human gut model, gut microflora populations (Example 4); format: cell-based
Method: as §1, with “Model A (LHS) was exposed to moxifloxacin (43 mg/L, once daily, for 7 days) and Model B (RHS) was exposed to omadacycline” for “Omadacycline instillation”
(§2) Bacterial populations in the gut model were monitored using selective agars to count viable bacterial colonies. Populations were monitored every other day for the first 2 weeks until the steady state was reached, and daily thereafter. C. difficile populations were monitored in all three vessels, and all other bacterial groups (total obligate anaerobes, total facultative anaerobes, lactose fermenting Enterobacteriaceae, Enterococci, total Clostridia, Lactobacilli, Bifidobacteria and B. fragilis group) were monitored in vessels 2 and 3 only. Vessel 3, which represents the distal colon, is of most physiological relevance in terms of propensity to induce CDI. C. difficile total viable counts and spores counts were monitored using viable counting and a differential alcohol shock viable count on selective agars. From day 14 onwards C. difficile cytotoxin was measured using a quantitative VERO cell cytotoxicity assay. Samples of 1 mL each were centrifuged at 16,000×g for 15 minutes, and the supernatants were removed. Six 1:10 serial dilutions (to 10^−6) of culture supernatants from the gut model were prepared. Twenty microliters of the appropriate dilution was added to VERO cell monolayers and a further 20 μL of C. sordellii antitoxin (diluted 1:10 in sterile distilled water) was placed in the corresponding antitoxin row. Monolayers were examined after 24 and 48 hours of incubation in 5% CO2, with a positive result indicated by the presence of cell rounding with concurrent neutralization of the effect by C. sordellii antitoxin. Cytotoxin titers (relative units, RU) were an arbitrary log10 scale, and the cytotoxin titer is reported in the highest dilution with >70% cell rounding, i.e. 10^0=1 RU, 10^−1=2 RU, 10^−2=3 RU. Samples were taken daily from day 21 onwards to determine antimicrobial concentrations in the gut model vessels by a bioassay. Concentrations of moxifloxacin were determined using Isosensitest agar with Escherichia coli as the indicator organism. Concentrations of omadacyline were determined using Wilkins Chalgren agar with Kocuria rhizophila as the indicator organism.

[5] = system: C. difficile PCR ribotype 027 strain 210; assay: In vitro human gut model, C. difficile germination, proliferation and toxin production (Example 4); format: cell-based
Method: as §1, with “Model A (LHS) was exposed to moxifloxacin (43 mg/L, once daily, for 7 days) and Model B (RHS) was exposed to omadacycline” for “Omadacycline instillation”
as §2

[6] = oral 50 mg/kg/day for 5 days, N=10
[7] = vessels 2 and 3, 430 mg/L once daily for 7 days
[8] = vessels 2 and 3, 430 mg/L once daily for 7 days, fell below limit of detection
[9] = vessels 2 and 3, once daily for 7 days

## CN(C)c1cc(CNCC(C)(C)C)c(O)c2c1C[C@H]1C[C@H]3[C@H](N(C)C)C(O)=C(C(N)=O)C(=O)[C@@]3(O)C(O)=C1C2=O (stereo in doubt) [Omadacycline]
[1]
  MIC90: 0.12 µg/mL (≈ 0.216 µM)
[2]; oral 50 mg/kg/day for 5 days (clindamycin: 10 mg/kg SC pre-treatment only), N=10
  percent survival at day 2 post infection: 100%
[2]; oral 50 mg/kg/day for 5 days (clindamycin: pre-treatment only), followed up to 21 days
  Median Survival: 12 days
[2]; [6]
  percent survival by day 3: 60%
  percent survival on day 13: 40%
  percent survival on day 16: 0%
[3]; after end of dosing
  time for all populations to return to steady state levels post antimicrobial exposure: approximately 1 week
[3]; [7]
  Enterobacteriacea populations: remained undisturbed
  decrease in B. fragilis group: ~3 log10 cfu/mL
  decrease in Enterococcus spp.: ~4 log10 cfu/mL
  decrease in Lactobacillus spp.: ~2 log10 cfu/mL
[3]; [8]
  decline in Bifidobacteria population: ~6 log10 cfu/mL
  decline in Clostridia population: ~6 log10 cfu/mL
[4]; all populations
  recovery of populations after end of dosing: returned to pre-antibiotic exposure levels by the end of the experiment
[4]; particularly in vessel 2
  Enterobacteriaceae populations: increased during omadacycline exposure
[4]; [9]
  decline in B. fragilis group: ~8 log10 cfu/mL
  decline in Bifidobacteria: ~8 log10 cfu/mL
  decline in Enterococcus spp. / Enterococci populations: ~6 log10 cfu/mL
  decline in Lactobacilli: ~6 log10 cfu/mL
  decrease in Clostridia: ~5 log10 cfu/mL
  decrease in lactose fermenting Enterobacteriaceae: ~5 log10 cfu/mL
  overall decline in total anaerobe populations: ~5 log10 cfu/mL
  total facultative anaerobes: remained fairly stable throughout
[5]; all three vessels
  C. difficile spore germination / vegetative cell proliferation: no vegetative cell proliferation observed
[5]; all vessels
  C. difficile toxin detection (VERO cell cytotoxicity assay): No toxin was detected
[5]; once daily for 7 days, omadacycline 430 mg/L, moxifloxacin 43 mg/L
  signs of simulated CDI: did not lead to any signs of simulated CDI
